Laboratory results published in patent US8524690B2, “DNA polymerase inhibitors composition and methods” (The Trustees of the University of Pennsylvania, priority 2007, dated 2013).

What was measured:
[1] = cited from earlier work
verruca vulgaris (warts) = test: Topical 3% cidofovir applied to the face for treatment of verruca vulgaris (warts); type: in vivo, human; conditions: 3% topical ointment, once a day, one patient
Method: (§1) A 3% topical ointment of cidofovir was prepared by mixing 3 g of cidofovir in 97 g of petrolatum. A 3% topical preparation of cidofovir was applied to the beard area of a patient. The formulation was applied by the patient once a day to the affected areas of the face for the treatment of verruca vulgaris (warts). […] After 4-8 weeks the patient had alopecia in the areas of the face where the medication was applied. This was the only hair bearing area that the patient applied the medication to. The warts resolved in approximately 2-3 months.

hair of the beard area = test: Topical 3% cidofovir ointment applied once a day to beard area of a patient: alopecia and local tolerability; type: in vivo, human
Method: A 3% topical ointment of cidofovir was prepared by mixing 3 g of cidofovir in 97 g of petrolatum.
as §1, with “A” for “A 3% topical ointment of cidofovir was prepared by mixing 3 g of cidofovir in 97 g of petrolatum. A”
The hair cycle time of the face is the shortest on the body. At any one point in time, up to 80% of the hair on the face (i.e. the beard area) is in the active growth phase.

For Nc1nc2c(ncn2COCCO)c(=O)[nH]1 [Acyclovir], the oral bioavailability [1] is listed as “low oral bioavailability”.
With Nc1ccn(C[C@@H](CO)OCP(=O)(O)O)c(=O)n1 [cidofovir, (S)-1-[3-hydroxy-2-(phosphonylmethoxy)propyl]cytosine] the “time until warts resolved” value (verruca vulgaris (warts)) was 2-3 months, the “time until alopecia in the areas of the face where the medication was applied” value (hair of the beard area; 3% topical ointment in petrolatum, once a day, beard area, one patient) was 4-8 weeks and the “local reaction to application” value (hair of the beard area; 3% topical ointment, once a day, face, application discontinued for several days then resumed) was “mild inflammation”. For the same compound, the “hair regrowth upon discontinuation of topical cidofovir” value (hair of the beard area; after stopping 3% topical cidofovir, beard area) was “the hair grew back”.
